Experimental data: ChEMBL document CHEMBL1201862, “PubChem BioAssay data set” (2004)
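Test compounds were applied to cells in 96-well plates for 48 hours at 5 doses. GI50 marks 50% less growth.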 The source made the active and inactive calls. Rule as the data show it: active = GI50 up to about 1.1 µM and inactive = higher.

Tests used:
Experiment in all cases: inhibition of tumour cell growth, NCI panel, 48 h
[1] = test system: 786-0
[2] = test system: A498
[3] = test system: A549
[4] = test system: ACHN
[5] = test system: CCRF-CEM
[6] = test system: COLO 205
[7] = test system: DLD-1
[8] = test system: DMS-114
[9] = test system: EKVX
[10] = test system: HCC 2998
[11] = test system: HCT-116
[12] = test system: HCT-15
[13] = test system: HL-60
[14] = test system: HOP-62
[15] = test system: HT-29
[16] = test system: IGROV-1
[17] = test system: K562
[18] = test system: KM-20L2
[19] = test system: KM12
[20] = test system: LXFL 529
[21] = test system: M14
[22] = test system: M19-MEL
[23] = test system: MOLT-4
[24] = test system: Malme-3M
[25] = test system: NCI-H226
[26] = test system: NCI-H23
[27] = test system: NCI-H460
[28] = test system: NCI-H522
[29] = test system: OVCAR-3
[30] = test system: OVCAR-4
[31] = test system: OVCAR-5
[32] = test system: OVCAR-8
[33] = test system: RPMI-8226
[34] = test system: RXF 393
[35] = test system: RXF 631
[36] = test system: SF-268
[37] = test system: SF-295
[38] = test system: SF-539
[39] = test system: SK-MEL-28
[40] = test system: SK-MEL-2
[41] = test system: SK-OV-3
[42] = test system: SN12C
[43] = test system: SNB-19
[44] = test system: SNB-75
[45] = test system: SNB-78
[46] = test system: SR
[47] = test system: SW-620
[48] = test system: TK-10
[49] = test system: U-251
[50] = test system: UACC-257
[51] = test system: UACC-62
[52] = test system: UO-31

Measured: GI50

CC1CC(c2ccc(Cl)cc2)=Nc2ccccc2S1 (configuration not stated)
inactive: [1] > 100 µM | [2] > 100 µM | [3] > 100 µM | [4] > 100 µM | [5] > 100 µM | [6] > 100 µM | [7] > 100 µM | [8] > 100 µM | [9] > 100 µM | [10] > 100 µM | [11] > 100 µM | [13] > 100 µM | [14] > 100 µM | [15] > 100 µM | [16] > 100 µM | [17] > 100 µM | [18] > 100 µM | [19] > 100 µM | [20] > 100 µM | [21] > 100 µM | [22] > 100 µM | [23] > 100 µM | [24] > 100 µM | [25] > 100 µM | [26] > 100 µM | [27] > 100 µM | [28] > 100 µM | [29] > 100 µM | [30] > 100 µM | [31] > 100 µM | [32] > 100 µM | [33] > 100 µM | [34] > 100 µM | [35] > 100 µM | [36] > 100 µM | [37] > 100 µM | [38] > 100 µM | [39] > 100 µM | [40] > 100 µM | [41] > 100 µM | [42] > 100 µM | [43] > 100 µM | [44] > 100 µM | [45] > 100 µM | [46] > 100 µM | [47] > 100 µM | [48] > 100 µM | [49] > 100 µM | [50] > 100 µM | [51] > 100 µM | [52] > 100 µM
> 100 µM: [12]
